In ChEMBL document CHEMBL5126517, “Structure-Activity Relationship in the Leucettine Family of Kinase Inhibitors” (J Med Chem, 2022):

Tests used:
[1] = biological target: Dual specificity tyrosine-phosphorylation-regulated kinase 1B (Homo sapiens, UniProt Q9Y463)
U2OS = test: Induction of PI3K/mTor-dependent autophagy in human U2OS cells assessed as number of LC3 foci per cell at 10 uM measured after 4 hrs; format: cell-based; settings: filed as activator
[2] = biological target: Serine/threonine-protein kinase pim-1 (Homo sapiens, UniProt P11309); test: Inhibition of human recombinant Pim1 expressed in Escherichia coli using histone H1 as substrate incubated for 30 mins in presence of ATP by scintillation counting method
[3] = biological target: Dual specificity protein kinase CLK2 (Mus musculus, UniProt O35491); test: Inhibition of mouse recombinant GST-fused CLK2 expressed in Escherichia coli using GRSRSRSRSRSR peptide as substrate incubated for 30 mins in presence of ATP by scintillation counting method
[4] = Neurotoxicity against mouse HT-22 cells assessed as cell survival at 20 uM treated for 24 hrs by MTS assay; format: toxicity, cell-based; settings: ht-22, 24 h
[5] = Neurotoxicity against mouse HT-22 cells assessed as cell survival treated for 24 hrs by MTS assay; format: toxicity, cell-based
[6] = biological target: Dual specificity protein kinase CLK3 (Mus musculus, UniProt O35492); test: Inhibition of GST-fused mouse recombinant CLK3 expressed in Escherichia coli using GRSRSRSRSRSR peptide as substrate incubated for 30 mins in presence of ATP by scintillation counting method
[7] = biological target: T1, Dual specificity tyrosine-phosphorylation-regulated kinase 1A (Homo sapiens, UniProt Q13627); test: Inhibition of GST-fused human recombinant DYRK1A expressed in Escherichia coli using GRSRSRSRSRSR peptide as substrate incubated for 30 mins in presence of ATP by scintillation counting method
[8] = biological target: T2, Dual specificity tyrosine-phosphorylation-regulated kinase 3 (Homo sapiens, UniProt O43781); test: Inhibition of GST-fused human recombinant DYRK3 expressed in Escherichia coli using GRSRSRSRSRSR peptide as substrate incubated for 30 mins in presence of ATP by scintillation counting method
T2 sequence (O43781 whole entry): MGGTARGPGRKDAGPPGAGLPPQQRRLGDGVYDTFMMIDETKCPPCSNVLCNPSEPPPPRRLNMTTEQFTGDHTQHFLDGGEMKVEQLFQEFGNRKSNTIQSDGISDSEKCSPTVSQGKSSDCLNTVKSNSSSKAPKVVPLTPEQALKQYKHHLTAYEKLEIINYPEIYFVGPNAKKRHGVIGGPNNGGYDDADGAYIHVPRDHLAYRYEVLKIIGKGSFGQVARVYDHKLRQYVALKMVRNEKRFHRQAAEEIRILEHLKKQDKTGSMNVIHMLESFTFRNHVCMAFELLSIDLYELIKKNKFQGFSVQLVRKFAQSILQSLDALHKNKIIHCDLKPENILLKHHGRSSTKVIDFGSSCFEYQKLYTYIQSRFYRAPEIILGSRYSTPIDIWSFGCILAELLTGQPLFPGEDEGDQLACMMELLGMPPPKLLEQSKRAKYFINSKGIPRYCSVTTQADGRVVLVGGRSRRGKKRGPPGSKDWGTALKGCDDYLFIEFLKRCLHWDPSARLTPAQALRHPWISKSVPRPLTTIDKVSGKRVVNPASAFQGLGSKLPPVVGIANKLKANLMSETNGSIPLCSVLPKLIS

HT-22 [9] = test: Modulation of CLK1 pre-mRNA splicing in mouse HT-22 cells assessed as inclusion of CLK1 exon 4 by measuring change in threshold cycle at 10 uM measured after 4 hrs by real time PCR analysis; format: cell-based; settings: filed as modulator
Cannabinoid receptor 1 = Cannabinoid receptor 1 (Homo sapiens, UniProt P21554); test: Antagonist activity at CP-55940-activated CB1 receptor (unknown origin) at 10 uM by beta-arrestin assay relative to control; format: functional; design: scale not given: the % may be the effect or the level left
[10] = biological target: Dual specificity protein kinase CLK4 (Mus musculus, UniProt O35493); test: Inhibition of GST-fused mouse recombinant CLK4 expressed in Escherichia coli using GRSRSRSRSRSR peptide as substrate incubated for 30 mins in presence of ATP by scintillation counting method
Casein kinase 2 = Casein kinase 2 (Homo sapiens, UniProt P67870+P68400+P19784+Q8NEV1); test: Inhibition of human recombinant CK2 using RRRDDDSDDD peptide as substrate incubated for 30 mins in presence of ATP by scintillation counting method; format: protein assay
[11] = biological target: T3, Dual specificity tyrosine-phosphorylation-regulated kinase 2 (Homo sapiens, UniProt Q92630); test: Inhibition of GST-fused human recombinant DYRK2 expressed in Escherichia coli using GRSRSRSRSRSR peptide as substrate incubated for 30 mins in presence of ATP by scintillation counting method
T3 sequence (Q92630 whole entry): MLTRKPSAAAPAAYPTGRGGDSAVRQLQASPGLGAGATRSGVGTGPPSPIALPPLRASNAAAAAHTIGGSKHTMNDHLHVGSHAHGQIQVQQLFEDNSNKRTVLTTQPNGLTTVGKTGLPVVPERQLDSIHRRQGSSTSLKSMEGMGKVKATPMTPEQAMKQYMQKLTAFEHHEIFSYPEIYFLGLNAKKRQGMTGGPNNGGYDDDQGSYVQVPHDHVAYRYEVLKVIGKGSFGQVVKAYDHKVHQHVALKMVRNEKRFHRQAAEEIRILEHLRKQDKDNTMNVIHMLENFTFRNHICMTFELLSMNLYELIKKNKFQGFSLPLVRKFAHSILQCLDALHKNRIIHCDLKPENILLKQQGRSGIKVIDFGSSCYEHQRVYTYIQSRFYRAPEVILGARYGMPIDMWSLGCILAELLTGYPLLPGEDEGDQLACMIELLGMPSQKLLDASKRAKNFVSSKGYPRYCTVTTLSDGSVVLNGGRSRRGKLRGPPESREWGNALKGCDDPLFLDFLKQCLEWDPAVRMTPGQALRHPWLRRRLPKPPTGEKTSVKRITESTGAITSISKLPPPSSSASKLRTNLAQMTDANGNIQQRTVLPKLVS

[12] = biological target: Glycogen synthase kinase-3 (Sus scrofa, UniProt B2LUN4+I6LNT8); test: Inhibition of porcine brain GSK-3alpha/beta using YRRAAVPPSPSLSRHSSPHQpSEDEEE as substrate incubated for 30 mins in presence of ATP by scintillation counting method; format: tissue-based
[13] = biological target: Dual specificity protein kinase CLK1 (Mus musculus, UniProt P22518); test: Inhibition of GST-fused mouse recombinant CLK1 expressed in Escherichia coli using GRSRSRSRSRSR peptide as substrate incubated for 30 mins in presence of ATP by scintillation counting method
[14] = biological target: T1, Dual specificity tyrosine-phosphorylation-regulated kinase 1A; test: Inhibition of DYRK1A in human SH-SY5Y overexpressing Tau4R cells assessed as phosphorylated Tau Thr212 residue level at 10 uM incubated for 6 hrs by western blot analysis relative to control; format: cell-based
HT-22 [15] = test: Neuroprotective activity against glutamate-induced cell death in mouse HT-22 cells treated for 24 hrs by MTS assay; format: functional, cell-based; settings: HT-22, 24 h

Serine/threonine-protein kinase pim-1, sequence (P11309 whole entry, the tested form may be a part): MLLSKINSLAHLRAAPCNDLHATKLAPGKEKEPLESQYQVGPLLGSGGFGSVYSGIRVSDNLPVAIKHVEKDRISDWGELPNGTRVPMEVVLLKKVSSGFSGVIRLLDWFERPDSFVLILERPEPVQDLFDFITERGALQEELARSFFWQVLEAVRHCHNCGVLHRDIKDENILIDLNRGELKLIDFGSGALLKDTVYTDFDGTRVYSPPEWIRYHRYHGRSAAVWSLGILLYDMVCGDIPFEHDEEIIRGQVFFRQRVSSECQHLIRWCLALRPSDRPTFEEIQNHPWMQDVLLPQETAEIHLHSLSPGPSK
Dual specificity protein kinase CLK4, sequence (O35493 whole entry, the tested form may be a part): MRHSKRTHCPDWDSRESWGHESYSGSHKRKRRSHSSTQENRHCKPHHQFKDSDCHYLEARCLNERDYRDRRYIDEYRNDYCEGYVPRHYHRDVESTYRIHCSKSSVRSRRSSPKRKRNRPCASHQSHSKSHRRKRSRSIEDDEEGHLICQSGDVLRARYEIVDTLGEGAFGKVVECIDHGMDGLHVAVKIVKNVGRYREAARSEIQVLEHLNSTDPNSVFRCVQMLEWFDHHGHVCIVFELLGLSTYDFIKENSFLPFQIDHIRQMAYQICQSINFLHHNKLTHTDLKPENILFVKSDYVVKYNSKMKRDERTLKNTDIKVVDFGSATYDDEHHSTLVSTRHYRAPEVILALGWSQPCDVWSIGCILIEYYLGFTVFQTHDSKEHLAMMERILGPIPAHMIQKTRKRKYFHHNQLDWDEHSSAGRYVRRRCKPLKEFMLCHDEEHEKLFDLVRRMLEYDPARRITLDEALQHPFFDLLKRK
Dual specificity protein kinase CLK2, sequence (O35491 whole entry, the tested form may be a part): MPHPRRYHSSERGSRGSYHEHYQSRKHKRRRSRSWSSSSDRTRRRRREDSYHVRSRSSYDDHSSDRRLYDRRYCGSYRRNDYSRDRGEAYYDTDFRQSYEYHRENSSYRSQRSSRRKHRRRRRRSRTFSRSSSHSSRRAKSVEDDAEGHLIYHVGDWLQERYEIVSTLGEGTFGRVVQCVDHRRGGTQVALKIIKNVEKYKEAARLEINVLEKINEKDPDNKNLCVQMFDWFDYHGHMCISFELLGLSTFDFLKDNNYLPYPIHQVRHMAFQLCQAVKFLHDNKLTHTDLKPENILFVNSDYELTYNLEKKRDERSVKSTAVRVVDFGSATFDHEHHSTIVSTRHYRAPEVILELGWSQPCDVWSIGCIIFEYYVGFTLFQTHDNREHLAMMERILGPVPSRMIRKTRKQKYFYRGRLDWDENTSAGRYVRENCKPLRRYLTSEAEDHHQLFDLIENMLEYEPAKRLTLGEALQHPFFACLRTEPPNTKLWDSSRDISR
Dual specificity protein kinase CLK3, sequence (O35492 whole entry, the tested form may be a part): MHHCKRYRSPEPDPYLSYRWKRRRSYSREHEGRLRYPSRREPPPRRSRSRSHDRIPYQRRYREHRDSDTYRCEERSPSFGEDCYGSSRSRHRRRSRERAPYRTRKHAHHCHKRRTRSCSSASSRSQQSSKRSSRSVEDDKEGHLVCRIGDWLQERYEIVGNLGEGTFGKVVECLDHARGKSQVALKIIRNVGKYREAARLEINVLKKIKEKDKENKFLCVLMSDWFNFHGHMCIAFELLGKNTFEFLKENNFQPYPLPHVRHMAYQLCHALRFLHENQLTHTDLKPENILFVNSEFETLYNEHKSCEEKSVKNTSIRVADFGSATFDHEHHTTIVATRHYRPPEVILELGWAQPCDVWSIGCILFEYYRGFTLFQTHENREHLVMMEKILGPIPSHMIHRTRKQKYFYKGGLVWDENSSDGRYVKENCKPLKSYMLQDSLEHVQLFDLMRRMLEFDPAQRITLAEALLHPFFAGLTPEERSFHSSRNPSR
Dual specificity tyrosine-phosphorylation-regulated kinase 1B, sequence (Q9Y463 whole entry): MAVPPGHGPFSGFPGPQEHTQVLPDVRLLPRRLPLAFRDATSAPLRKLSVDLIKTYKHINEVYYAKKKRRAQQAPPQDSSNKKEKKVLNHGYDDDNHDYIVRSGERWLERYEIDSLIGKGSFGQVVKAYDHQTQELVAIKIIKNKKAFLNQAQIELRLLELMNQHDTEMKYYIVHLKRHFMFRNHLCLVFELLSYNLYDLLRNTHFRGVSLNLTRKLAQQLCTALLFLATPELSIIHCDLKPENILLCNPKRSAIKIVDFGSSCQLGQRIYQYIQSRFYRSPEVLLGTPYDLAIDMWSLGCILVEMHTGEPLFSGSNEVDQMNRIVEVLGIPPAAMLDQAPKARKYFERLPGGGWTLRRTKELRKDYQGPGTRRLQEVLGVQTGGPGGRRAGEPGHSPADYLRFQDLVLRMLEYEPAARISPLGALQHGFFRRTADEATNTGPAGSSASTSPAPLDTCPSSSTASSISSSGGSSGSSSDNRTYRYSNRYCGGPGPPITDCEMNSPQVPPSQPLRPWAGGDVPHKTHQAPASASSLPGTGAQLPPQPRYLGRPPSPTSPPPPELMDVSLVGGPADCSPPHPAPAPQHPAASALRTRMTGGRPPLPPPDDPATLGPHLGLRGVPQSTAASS
Cannabinoid receptor 1, sequence (P21554 whole entry, the tested form may be a part): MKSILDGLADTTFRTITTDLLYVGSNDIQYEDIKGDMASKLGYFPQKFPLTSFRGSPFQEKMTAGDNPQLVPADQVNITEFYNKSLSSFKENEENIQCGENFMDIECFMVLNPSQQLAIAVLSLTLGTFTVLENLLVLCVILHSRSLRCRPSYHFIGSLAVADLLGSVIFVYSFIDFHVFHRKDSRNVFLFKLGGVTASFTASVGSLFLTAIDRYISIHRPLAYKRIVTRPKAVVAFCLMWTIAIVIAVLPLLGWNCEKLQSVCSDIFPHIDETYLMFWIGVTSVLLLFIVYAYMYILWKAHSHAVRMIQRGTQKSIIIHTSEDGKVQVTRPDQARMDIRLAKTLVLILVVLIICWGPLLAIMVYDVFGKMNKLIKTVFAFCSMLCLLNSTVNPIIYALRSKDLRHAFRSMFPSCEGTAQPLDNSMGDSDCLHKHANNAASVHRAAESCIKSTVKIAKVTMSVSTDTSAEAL
Dual specificity protein kinase CLK1, sequence (P22518 whole entry, the tested form may be a part): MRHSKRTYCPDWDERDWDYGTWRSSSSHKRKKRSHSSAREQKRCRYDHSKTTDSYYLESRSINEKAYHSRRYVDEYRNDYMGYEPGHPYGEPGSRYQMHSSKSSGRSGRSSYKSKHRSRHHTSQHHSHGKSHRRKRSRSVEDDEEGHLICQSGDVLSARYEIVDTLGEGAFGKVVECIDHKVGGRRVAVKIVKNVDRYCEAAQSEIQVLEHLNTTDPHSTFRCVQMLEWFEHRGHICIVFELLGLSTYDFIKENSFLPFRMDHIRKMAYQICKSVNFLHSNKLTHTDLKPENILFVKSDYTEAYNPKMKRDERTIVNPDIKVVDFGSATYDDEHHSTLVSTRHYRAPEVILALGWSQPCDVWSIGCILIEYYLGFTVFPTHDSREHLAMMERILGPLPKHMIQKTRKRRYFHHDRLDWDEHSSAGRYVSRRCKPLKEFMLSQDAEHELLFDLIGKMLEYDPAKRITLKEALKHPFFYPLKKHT

| Compound | IC50 [1] | Activity (U2OS) | IC50 [2] | IC50 [3] | Activity [4] | EC50 at 24 h [5] | IC50 [6] | IC50 [7] | IC50 [8] | deltaCT (HT-22 [9]) | Activity (Cannabinoid receptor 1) | IC50 [10] | IC50 (Casein kinase 2) | IC50 [11] | IC50 [12] | IC50 [13] | inhibition [14] | Activity (Cannabinoid receptor 1; filed as antagonist) | EC50 (HT-22 [15]) |
| --- | --- | --- | --- | --- | --- | --- | --- | --- | --- | --- | --- | --- | --- | --- | --- | --- | --- | --- | --- |
| CCSC1=N/C(=C\c2ccc3c(c2)OCO3)C(=O)N1 | 0.072 µM | 5.5 | 0.34 µM | 0.12 µM | Non-Toxic | > 20 µM | 1.4 µM | 0.033 µM | 0.16 µM | 0.57 | -7.5% | 0.023 µM | 0.6 µM | 0.032 µM | 0.9 µM | 0.029 µM | – | – | – |
| CNC1=N/C(=C\c2ccc3c(c2)OCO3)C(=O)N1 | 0.5 µM | 4.9 | 1.2 µM | 0.53 µM | Non-Toxic | > 20 µM | 1.2 µM | 0.16 µM | 0.48 µM | 1 | -14.7% | 0.094 µM | 1.8 µM | 0.13 µM | 6.2 µM | 0.14 µM | – | – | – |
| CCCCOc1ccc(/C=C2\N=C(Nc3ccccc3)NC2=O)cc1OC | – | 7.6 | – | – | Non-Toxic | – | – | – | – | – | – | – | – | – | – | – | -8% | 54.3% | 2.45 µM |
| NC1=N/C(=C\c2ccc3c(c2)OCO3)C(=O)N1 | 0.19 µM | 5 | 0.32 µM | 0.18 µM | – | > 20 µM | 0.95 µM | 0.035 µM | 0.24 µM | 3.02 | -2.2% | 0.037 µM | 0.93 µM | 0.032 µM | 2.1 µM | 0.041 µM | – | – | – |
| O=C1NC(Nc2ccc(O)cc2)=N/C1=C\c1ccc2c(c1)OCO2 | 0.024 µM | 12 | 1.1 µM | 0.083 µM | – | > 20 µM | 0.28 µM | 0.013 µM | 0.14 µM | 7.91 | -25.5% | 0.018 µM | 0.14 µM | 0.011 µM | 0.53 µM | 0.022 µM | – | – | 9 µM |
| CCCNC1=N/C(=C\c2ccc3c(c2)OCO3)C(=O)N1c1ccccc1 | > 10 µM | 4.7 | – | 2.5 µM | – | > 20 µM | 9.5 µM | > 10 µM | 7 µM | -0.05 | -17.9% | 1.2 µM | – | 7.2 µM | > 10 µM | 2 µM | – | – | – |
| O=C1NC(Nc2ccc(-c3ccccc3)cc2)=N/C1=C\c1ccc2c(c1)OCO2 | > 10 µM | 6.8 | – | > 10 µM | Non-Toxic | – | – | 8.1 µM | – | – | 36.8% | 5.2 µM | – | 4.2 µM | – | > 10 µM | -5.1% | – | > 20 µM |
